Like-named read-outs stand apart in the source and are kept apart here.
System: porcine kidney
From the text: For the ex vivo normothermic perfusion of kidneys, data pertaining to the hemodynamics of the kidney were collected and monitored: kidney mass, urine output, arterial flow, arterial pressure, pump speed, hematocrit, and arterial oxygen saturation. To accomplish this, ZP-50N digital force gauges by Baoshishan were used to measure kidney mass and urine output; a Medtronic Bio-console device to measure flow, pressure, and pump speed; and a Medtronic Bio-trend device to measure hematocrit and oxygen saturation.
Data collection from these sensors was standardized at a rate of 0.2 Hz (approximately a data point every five seconds) and integrated via an open-source software written in Python. […] The act of collecting data from each sensor simultaneously presented a unique challenge in that a typical computer program is sequential in its execution, meaning that data collection from one sensor should not be able to occur until collection from another sensor is finished. Furthermore, the runtime complexity of the code block associated with each sensor meant that data collection from one sensor could potentially interfere with the collection from another, and vice-versa. To circumvent these issues, the code blocks for each sensor were run in separate threads using the Python threading library. This allowed each code block to be executed simultaneously in parallel (as opposed to sequentially in series), meaning data collection from one sensor was independent of data collection from all other sensors. After the data was extracted, the code block for each sensor transformed the data string by removing superfluous characters and converting the pertinent data into a float format. To upload the transformed data to the Azure cloud database the sys, platform, and pyodbc libraries were used to communicate with the edge device and establish a database connection using an SQL driver.
The “Blood gas data upload” feature allows one to manually input data collected from perfusate analysis assays. For our perfusion experiment, CG8+ and Renal Function Panel cartridges were used with iStat and Piccolo devices, respectively; however, the software can easily be modified to accommodate other perfusate assays.
Histamine was administered at two different time-points during the perfusion.

## NCCc1c[nH]cn1 [histamine]
40 mg histamine on the arterial side at 240 minutes of perfusion
  arterial flow after histamine: Flow immediately stopped
100 mg histamine on the arterial side at 90 minutes of perfusion
  arterial flow after histamine: immediate halt of flow
After 40 mg histamine at 240 minutes, pump RPM slowly increased to 1900, no heparin
  time until flow normalized: 30 min
After 100 mg histamine at 90 min, heparin at 120 minute, pump RPM 2000
  time until flow increased and arterial pressure normalized: ≤ 60 min
After 100 mg histamine at 90 min, 20k units heparin added at 120 minute, pump RPM increased to 2000, starting arterial pressure 15 mmHg
  arterial pressure while flow slowly returned: 40-60 mmHg
After first histamine administration, weight before histamine approximately 0.26 Kg
  kidney weight after flow and pressures normalized: 0.27 to 0.28 kg
After histamine at 90 minutes, weight before approximately 0.26 Kg
  kidney weight after histamine (manual recordings): approximately 0.24 Kg
Arterial administration of histamine
  arterial pressure immediately after histamine: immediately increased
First histamine administration at 90 minutes
  urine production (qualitative observation): initiate after the first histamine administration
